Experimental findings from publication PMC4503980 (Scientific Reports, 2015) are described below.

Assay type in all cases: binding
For experiment [1], the target named is PSD-95-PDZ2 (Homo sapiens, UniProt P78352). The experiment is described as follows: FP saturation and inhibition, TAMRA-Cnskr2 / PSD-95-PDZ2. More on the design: PDZ2 (155-249); made in house; host or cells: E. coli BL21-DE3 pLysS. As to conditions: saturation, TAMRA-Cnskr2 5 nM; read-out: Kd probe / PSD-95-PDZ2. The text has this: (§1) First we tested a series of 23 fluorescent-labelled C-terminal peptide ligands (Supplementary Table S1) derived from PDZ-interacting proteins in order to find a probe with good activity towards the PSD-95 PDZ domains and no or little activity against nNOS-PDZ (Supplementary Fig. S1). The Cnskr2 probe fulfilled these selectivity criteria and was used to generate saturation curves with PDZ2 and PDZ1-2 of PSD-95 (Fig. 4a). […] Next, fixed concentrations of TAMRA-Cnskr2, PSD-95-PDZ2/1-2, and nNOS-PDZ were applied, corresponding to the conditions at IC50 of the nNOS-PDZ inhibition curve (Fig. 4b) where sensitivity of the assay is greatest. […] Here, we used the Sapk3-peptide as it has the desired high affinity to α1-Syntrophin-PDZ and low affinity to nNOS-PDZ (Supplementary Fig. S1).
Chain of PSD-95-PDZ2 (P78352 155-249): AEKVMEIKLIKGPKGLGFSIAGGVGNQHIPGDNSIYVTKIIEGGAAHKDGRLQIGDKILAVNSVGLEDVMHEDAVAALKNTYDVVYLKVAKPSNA
(§2) The minor increases in mP at high concentrations, 260-2900 μM, were due to fluorescence artefacts.
(§3) Incubation time was 10–15 minutes (room temperature), and the assay was performed in a 1 × TBS buffer (150 mM NaCl, 10 mM Tris, pH 7.4) using black flat-bottom 384-well plates (Corning Life Sciences, NY) and a Safire2 plate-reader (Tecan, Männedorf, Switzerland). […] TAMRA- and Cy5-probes were measured at excitation/emission values of 530/585 nm (bandwidth = 20 nm) and 635/670 nm (bandwidth = 15 nm), respectively. […]

Experiment [2] has as its target T1, nNOS-PDZ (Homo sapiens, UniProt P29475).
T1 construct: nNOS-PDZ (12–130, human); made in house; host or cells: E. coli
The experiment is described as follows: FP saturation, TAMRA-Cnskr2 / nNOS-PDZ. As to conditions: TAMRA-Cnskr2 5 nM, read-out: Kd probe / nNOS-PDZ.
Source text: as §1, §2, §3

In experiment [3] the target is T2, PSD-95-PDZ1-2 (Homo sapiens, UniProt P78352).
T2 construct: PDZ1-2 (61-249); made in house; host or cells: E. coli BL21-DE3 pLysS
T2 sequence (P78352 61-249): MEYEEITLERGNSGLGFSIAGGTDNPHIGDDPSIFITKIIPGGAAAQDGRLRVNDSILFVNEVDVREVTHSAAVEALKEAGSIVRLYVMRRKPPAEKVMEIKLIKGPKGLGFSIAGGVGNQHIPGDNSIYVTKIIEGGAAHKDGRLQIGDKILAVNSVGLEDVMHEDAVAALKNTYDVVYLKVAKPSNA
The experiment is described as follows: FP saturation and inhibition, TAMRA-Cnskr2 / PSD-95-PDZ1-2. The following applies: saturation, TAMRA-Cnskr2 5 nM; read-out: Kd probe / PSD-95-PDZ1-2.
Source text: as §1, §2, §3

Peptide text beside a SMILES is read from it. * marks the point of attachment. 5TAMRA = CN(C)c1ccc2c(c1)Oc1cc(N(C)C)ccc1C21OC(=O)c2cc(C(=O)*)ccc21

T1 sequence (P29475 12-130): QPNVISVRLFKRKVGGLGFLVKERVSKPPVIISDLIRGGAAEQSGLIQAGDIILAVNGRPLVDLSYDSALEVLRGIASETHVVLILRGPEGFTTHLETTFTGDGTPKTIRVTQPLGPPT

`CC[C@H](C)[C@H](NC(=O)[C@H](Cc1ccc(O)cc1)NC(=O)[C@H](CO)NC(=O)[C@H](Cc1c[nH]cn1)NC(=O)[C@@H](NC(=O)[C@H](Cc1c[nH]cn1)NC(=O)CNC(=O)[C@H](CC(N)=O)NC(=O)[C@H](CC(N)=O)NC(=O)c1ccc2c(c1)C(=O)OC21c2ccc(N(C)C)cc2Oc2cc(N(C)C)ccc21)[C@@H](C)O)C(=O)N[C@@H](CCC(=O)O)C(=O)N[C@H](C(=O)N[C@@H](Cc1c[nH]cn1)C(=O)N[C@H](C(=O)O)C(C)C)[C@@H](C)O` [TAMRA-Cnskr2] (5TAMRA-NNGHTHSYIETHV-OH): the Kd in experiment [1] was 380 ± 30 nM; in experiment [2], above 190000 nM; in experiment [3], 1100 ± 100 nM.
